Broadly, the Km is the concentration of substrate that gives half-maximal velocity.

These results are taken from paper doi:10.1101/2022.12.25.521902v1 (biorxiv, 2022).

The test system of the test is MsC17OMT (MsOMT1). The experiment in a line: LC-MS/MS methyltransferase assay, Michaelis-Menten fit. It counts as biochemical, Mitragyna speciosa. The conditions noted are these: 100 μM SAM, Tris-HCl pH 7.5, 30 °C, 2 min.

As to `C/C=C1/CN2CCc3c([nH]c4ccccc34)[C@@H]2C[C@@H]1/C(=C/O)C(=O)OC` [compound 3, 19E-geissoschizine], the Michaelis-Menten constant (Km) turned out to be 5.3 µM.
Take `C/C=C1\CN2CCc3c([nH]c4ccccc34)[C@@H]2C[C@@H]1/C(=C/O)C(=O)OC` [compound 4, 19Z-geissoschizine]: the Km is 12.8 µM.
